Results: PubChem BioAssay AID256 (DTP/NCI, 2004)
Toxic doses and inconclusive results are not listed. Rule for the calls: active = survival T/C of 150% or more; inactive = T/C below 125% in these data.

System: CD2F1 mice, L1210 leukemia ip, survival T/C
Assay: NCI In Vivo Anticancer Drug Screen. Data for tumor model L1210 Leukemia (intraperitoneal) in CD2F1 (CDF1) mice
Settings: endpoint: mean survival time, higher = longer survival
Outline: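 Vehicle-treated tumor-bearing mice served as controls (C) for compound-treated mice (T). Reported figure is T divided by C.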

[1] = dose: 100.0 mg/kg/injection, schedule: Q01DX001 (ip), vehicle: saline with Tween-80
[2] = dose: 100.0 mg/kg/injection, schedule: Q01DX009 (ip), vehicle: saline with Tween-80
[3] = dose: 200.0 mg/kg/injection, schedule: Q01DX001 (ip), vehicle: saline with Tween-80
[4] = dose: 200.0 mg/kg/injection, schedule: Q01DX009 (ip), vehicle: saline with Tween-80
[5] = dose: 400.0 mg/kg/injection, schedule: Q01DX001 (ip), vehicle: saline with Tween-80
[6] = dose: 400.0 mg/kg/injection, schedule: Q01DX009 (ip), vehicle: saline with Tween-80
[7] = dose: 50.0 mg/kg/injection, schedule: Q01DX009 (ip), vehicle: saline with Tween-80
[8] = dose: 25.0 mg/kg/injection, schedule: Q04DX003 (ip), vehicle: saline with Tween-80
[9] = dose: 50.0 mg/kg/injection, schedule: Q04DX003 (ip), vehicle: saline with Tween-80
[10] = dose: 100.0 mg/kg/injection, schedule: Q04DX003 (ip), vehicle: saline with Tween-80
[11] = dose: 100.0 mg/kg/injection, schedule: Q04DX003 (ip), vehicle: saline
[12] = dose: 200.0 mg/kg/injection, schedule: Q04DX003 (ip), vehicle: saline

Measured: T/C

Cc1[nH]c(=S)[nH]c(=O)c1CCO
inactive: [1] 105 % of control | [2] 101 % of control | [3] 95 % of control | [4] 103 % of control | [5] 100 % of control | [6] 101 % of control

CCOC/C=C\C1CCCC1
inactive: [7] 94 % of control | [2] 100 % of control | [4] 102 % of control

CCNC(=S)Nc1ccc(Cl)cc1
inactive: [8] 104 % of control | [9] 101 % of control | [10] 91 % of control

CCCCCCCCCCCC(=O)c1ccccc1
inactive: [2] 102 % of control | dose: 100.0 mg/kg/injection, schedule: Q04DX003 (ip), vehicle: other 95 % of control | [4] 102 % of control | dose: 200.0 mg/kg/injection, schedule: Q04DX003 (ip), vehicle: other 97 % of control | [6] 98 % of control | dose: 400.0 mg/kg/injection, schedule: Q04DX003 (ip), vehicle: other 92 % of control

CC(NCCN(C)C)C1CCC2C3CCC4CC(O)CCC4(C)C3CCC12C (centres undefined)
inactive: dose: 12.5 mg/kg/injection, schedule: Q04DX003 (ip), vehicle: saline with Tween-80 101 % of control | [8] 95 % of control | [9] 101 % of control

C1=CC2CCC[N-]C2N1.C1=CC2CCC[N-]C2N1.[I][Pt+2][I] (centres undefined)
inactive: dose: 25.0 mg/kg/injection, schedule: Q04DX003 (ip), vehicle: saline 98 % of control | dose: 50.0 mg/kg/injection, schedule: Q04DX003 (ip), vehicle: saline 101 % of control | [11] 102 % of control | [12] 107 % of control

CC(C)CCC(C(=O)O)C(=O)O
inactive: dose: 75.0 mg/kg/injection, schedule: Q01DX001 (ip), vehicle: saline 96 % of control | dose: 150.0 mg/kg/injection, schedule: Q01DX001 (ip), vehicle: saline 102 % of control

O=C(O)c1ccccc1-c1ccccc1C(=O)Nc1ccc2c(c1)Cc1ccccc1-2
inactive: dose: 62.5 mg/kg/injection, schedule: Q04DX003 (ip), vehicle: saline with Tween-80 101 % of control | dose: 125.0 mg/kg/injection, schedule: Q04DX003 (ip), vehicle: saline with Tween-80 98 % of control | dose: 250.0 mg/kg/injection, schedule: Q04DX003 (ip), vehicle: saline with Tween-80 98 % of control

CCCCSc1cc(C)nc2ccccc12
inactive: dose: 100.0 mg/kg/injection, schedule: Q04DX002 (ip), vehicle: saline with Tween-80 96 % of control

C=C(C)CC(O)CCCCCC (centres undefined)
inactive: [7] 98 % of control | [2] 110 % of control | [4] 107 % of control

CCNC1=C(C)C(=O)C2=C(C1=O)C(COC(N)=O)C1(OC)C3NC3CN21 (centres undefined)
inactive: dose: 1.5 mg/kg/injection, schedule: Q01DX001 (ip), vehicle: water 98 % of control | dose: 3.0 mg/kg/injection, schedule: Q01DX001 (ip), vehicle: water 110 % of control | dose: 6.0 mg/kg/injection, schedule: Q01DX001 (ip), vehicle: water 110 % of control | dose: 12.0 mg/kg/injection, schedule: Q01DX001 (ip), vehicle: water 114 % of control

O=C(CC(SCCN1CCOCC1)c1ccc([N+](=O)[O-])cc1)c1ccccc1 (centres undefined)
inactive: dose: 100.0 mg/kg/injection, schedule: Q01DX001 (ip), vehicle: Klucel (hydroxypropylcellulose) (HPC) 104 % of control | dose: 200.0 mg/kg/injection, schedule: Q01DX001 (ip), vehicle: Klucel (hydroxypropylcellulose) (HPC) 96 % of control | dose: 400.0 mg/kg/injection, schedule: Q01DX001 (ip), vehicle: Klucel (hydroxypropylcellulose) (HPC) 107 % of control

CCOC(=O)NC(=O)CC#N
inactive: [10] 101 % of control | dose: 200.0 mg/kg/injection, schedule: Q04DX003 (ip), vehicle: saline with Tween-80 93 % of control | dose: 400.0 mg/kg/injection, schedule: Q04DX003 (ip), vehicle: saline with Tween-80 103 % of control

CCCCNC(C)(C)C(SSSC(c1cccs1)C(C)(C)NCCCC)c1cccs1 (centres undefined)
inactive: dose: 100.0 mg/kg/injection, schedule: Q01DX009 (ip), vehicle: saline sonified 100 % of control | dose: 200.0 mg/kg/injection, schedule: Q01DX009 (ip), vehicle: saline sonified 103 % of control

Nc1ncnc2[nH]c(=O)[nH]c12
inactive: dose: 12.5 mg/kg/injection, schedule: Q01DX009 (ip), vehicle: saline 101 % of control | dose: 25.0 mg/kg/injection, schedule: Q01DX009 (ip), vehicle: saline 114 % of control | dose: 50.0 mg/kg/injection, schedule: Q01DX009 (ip), vehicle: saline 105 % of control | [11] 108 % of control | [12] 112 % of control | dose: 400.0 mg/kg/injection, schedule: Q04DX003 (ip), vehicle: saline 108 % of control

Nc1nc(=O)n(CCCOc2cccc(NC(=O)c3ccccc3)c2)cc1-c1ccc(Cl)c(Cl)c1
inactive: [1] 91 % of control | [3] 94 % of control | [5] 97 % of control

CN(C)CC1CCCCC1OC(=O)c1ccccc1 (centres undefined)
inactive: [8] 93 % of control | [9] 97 % of control | [10] 97 % of control | dose: 100.0 mg/kg/injection, schedule: Q04DX003 (ip), vehicle: water 96 % of control
